# Values joined by “and” are separate entries in the source; they are usually repeats but may differ in a detail not shown here. Equal entries are not always repeated. Structures can show the parent of a compound that is named as a salt.
# Columns and labels:
# MDA-MB-453 = assay: In vitro tumor cell proliferation inhibition test (CTG); format: cell-based; details: 4-7 days; for Maximum Inhibition Rate: HR-/HER2+ Breast cancer; for IC50: Homo sapiens, MDA-MB-453, HR-/HER2+ Breast cancer
# Protocol: (§1) The cells were subcultured regularly, and those in the logarithmic growth phase were taken for plating. The cells were stained with trypan blue and the viable cells were counted. The cell concentration was adjusted to an appropriate level. The cell suspension was added to each well of the culture plate, and the culture medium without cells was added to the blank control wells. […] The compound working solution was added to the cell culture plate, and DMSO at the same final concentration was added to the solvent control wells. Then the plate was returned to the incubator for 4-7 days of culture. The cell viability was detected according to the instructions of the Promega CellTiter-Glo (CTG) Luminescent Cell Viability Assay Kit (Promega-G7573). […] The IC50 was calculated using the following equation: [formula] • X: log(concentration) • Y: response value, negatively correlated with X • HillSlope: slope factor • Note: […]
# xMCF-7/Palbo-R = assay: as above; format: cell-based; details: Breast cancer (acquired resistance to Palbociclib), 4-7 days
# Protocol: as §1
# MDA-MB-468 (Rb-) = assay: as above; format: cell-based; details: 4-7 days; for Maximum Inhibition Rate: Breast cancer (primary resistance to Palbociclib); for IC50: Homo sapiens, MDA-MB-468, Breast cancer (primary resistance to Palbociclib)
# Protocol: as §1
# MDA-MB-231 = assay: as above; format: cell-based; details: 4-7 days; for IC50: Homo sapiens, MDA-MB-231, Triple-negative breast cancer; for Maximum Inhibition Rate: Triple-negative breast cancer
# Protocol: as §1
# HCC1187 = assay: as above; format: cell-based; details: 4-7 days; for IC50: Homo sapiens, HCC1187, Triple-negative breast cancer; for Maximum Inhibition Rate: Triple-negative breast cancer
# Protocol: as §1
# MCF-7 = assay: as above; format: cell-based; details: 4-7 days; for Maximum Inhibition Rate: HR+/HER2- Breast cancer; for IC50: Homo sapiens, MCF7, HR+/HER2- Breast cancer
# Protocol: as §1
# T47D = assay: as above; format: cell-based; details: HR+/HER2- Breast cancer, 4-7 days; for IC50: Homo sapiens, T47D
# Protocol: as §1
# MV-4-11 = assay: as above; format: cell-based, Human; details: 4-7 days
# Protocol: (§2) The tumor cell strains were cultured in an incubator at 37 °C with 5% CO2. The cells were subcultured regularly, and those in the logarithmic growth phase were taken for plating. The cells were stained with trypan blue and the viable cells were counted. The cell concentration was adjusted to an appropriate level. The cell suspension was added to each well of the culture plate, and the culture medium without cells was added to the blank control wells. The culture plate was incubated overnight in an incubator at 37 °C, 5% CO2, and 100% RH. […] The compound working solution was added to the cell culture plate, and DMSO at the same final concentration was added to the solvent control wells. Then the plate was returned to the incubator for 4-7 days of culture. The cell viability was detected according to the instructions of the Promega CellTiter-Glo (CTG) Luminescent Cell Viability Assay Kit (Promega-G7573).
# (§3) The inhibition rates of the compound at different concentrations were calculated in Excel, then the inhibition curve was plotted using GraphPad Prism software and relevant parameters, including the minimum inhibition rate, maximum inhibition rate, and IC50 were calculated.
# NCI-H211 = assay: as above; format: cell-based, Human; details: 4-7 days
# Protocol: as §2, §3
# JHH-7 = assay: as above; format: cell-based, Human; details: 4-7 days
# Protocol: as §2, §3
# Huh-7 = assay: as above; format: cell-based, Human; details: 4-7 days
# Protocol: as §2, §3
# HT-29 = assay: as above; format: cell-based, Human; details: 4-7 days
# Protocol: as §2, §3
# HCT 116 = assay: as above; format: cell-based, Human; details: 4-7 days
# Protocol: as §2, §3
# Hep3B (Rb-) = assay: as above; format: cell-based, Human; details: Liver cancer, 4-7 days
# Protocol: as §2, §3
# COLO 205 = assay: as above; format: cell-based, Human; details: 4-7 days
# Protocol: as §2, §3
# SK-MEL-5 = assay: as above; format: cell-based, Human; details: 4-7 days
# Protocol: as §2, §3
# A2780 = assay: as above; format: cell-based, Human; details: 4-7 days
# Protocol: as §2, §3
# MOLM-13 = assay: as above; format: cell-based, Human; details: 4-7 days
# Protocol: as §2, §3
# [1] = Solubility comparison in water, SGF, FaSSIF and FeSSIF (HPLC of filtrates, XRPD of filter cakes); details: time not stated
# [2] = Stability test, samples placed open for 7 days (HPLC and XRPD); format: physicochemical; details: HPLC
# [3] = Dynamic vapor sorption (DVS) test; format: physicochemical
# Protocol: • Instrument: TA Instruments Q5000 SA • Detection method: 20 to 50 mg of the sample was placed in a tared sample basket and automatically weighed, and DVS testing was performed according to the parameters in Table 7: Step Time: 60 min; Equilibration Time per RH%: 1 hour; Total Gas Flow Rate: 200 sccm; Gradient mode: 0%-90%-0% humidity variation, with a humidity variation amount of 10% for each gradient level between 0% and 90%, and gradient endpoint was determined by dm/dt < 0.01% maintained for 10 minutes.
# [4] = Stability test, samples placed open for 7 days (HPLC and XRPD); format: physicochemical; details: for XRPD-7days / Purity (Peak area%) 7 days: open
# Source text: Subsequently, the samples after 7 days were respectively detected by HPLC and XRPD to determine their chemical and physical stabilities.
smiles,measurement,setting,value
CC(=O)c1c(C)c2cnc(Nc3ccc4c(c3)OC[C@@H]3CN(C5CCN(C)CC5)CCN43)nc2n(C2CCCC2)c1=O [Compound A],Maximum Inhibition Rate,MDA-MB-453,102.600%
same,Maximum Inhibition Rate,MDA-MB-453; listed as compound A,~100%
same,IC50,MDA-MB-453,384 nM
same,IC50,xMCF-7/Palbo-R,3090 nM
same,Maximum Inhibition Rate,xMCF-7/Palbo-R,99.677%
same,Maximum Inhibition Rate,MDA-MB-468 (Rb-),99.693%
same,Maximum Inhibition Rate,MDA-MB-468 (Rb-); listed as compound A,exceeding 99%
same,IC50,MDA-MB-468 (Rb-),440 nM
same,IC50,MDA-MB-231,3450 nM
same,Maximum Inhibition Rate,MDA-MB-231,99.567%
same,IC50,HCC1187,1110 nM
same,Maximum Inhibition Rate,HCC1187,99.777%
same,Maximum Inhibition Rate,MCF-7,99.937%
same,IC50,MCF-7,76 nM
same,Maximum Inhibition Rate,T47D,99.910%
same,IC50,T47D,1500 nM
same,Maximum Inhibition Rate,MV-4-11; Hematological tumor,99.897%
same,IC50,"MV-4-11; Homo sapiens, MV4-11, Hematological tumor",102 nM
same,IC50,"NCI-H211; Homo sapiens, NCI-H211, Small cell lung cancer",201 nM
same,Maximum Inhibition Rate,NCI-H211; Small cell lung cancer,99.883%
same,IC50,"JHH-7; Homo sapiens, JHH7, Liver cancer",107 nM
same,Maximum Inhibition Rate,JHH-7; Liver cancer,99.394%
same,IC50,"Huh-7; Homo sapiens, Huh-7, Liver cancer",107 nM
same,Maximum Inhibition Rate,Huh-7; Liver cancer,99.447%
same,Maximum Inhibition Rate,HT-29; Colorectal cancer,95.622%
same,IC50,"HT-29; Homo sapiens, HT-29, Colorectal cancer",113 nM
same,Maximum Inhibition Rate,HCT 116; Colorectal cancer,99.244%
same,IC50,"HCT 116; Homo sapiens, HCT-116, Colorectal cancer",134 nM
same,IC50,"Hep3B (Rb-); Homo sapiens, Hep3B",3330 nM
same,Maximum Inhibition Rate,Hep3B (Rb-),99.055%
same,Maximum Inhibition Rate,Hep3B (Rb-); listed as compound A,exceeding 99%
same,Maximum Inhibition Rate,COLO 205; Colorectal cancer,99.093%
same,IC50,"COLO 205; Homo sapiens, COLO 205, Colorectal cancer",734 nM
same,IC50,"SK-MEL-5; Homo sapiens, SK-MEL-5, Melanoma",9500 nM
same,Maximum Inhibition Rate,SK-MEL-5; Melanoma,99.213%
same,IC50,"A2780; Homo sapiens, A2780, Ovarian cancer",438 nM
same,Maximum Inhibition Rate,A2780; Ovarian cancer,98.887%
same,Maximum Inhibition Rate,MOLM-13; Hematological tumor,99.993%
same,IC50,"MOLM-13; Homo sapiens, MOLM-13, Hematological tumor",370 nM
same,solubility in SGF,"[1]; SGF, listed as free base",greater than 5 mg/mL
same,solubility in water,[1]; water,approximately 0.003 mg/mL
"CC(=O)c1c(C)c2cnc(Nc3ccc(N4CCNCC4)cn3)nc2n(C2CCCC2)c1=O [Palbociclib, reference compound]",IC50,MDA-MB-453,188 nM
same,IC50,xMCF-7/Palbo-R,7700 nM
same,Maximum Inhibition Rate,xMCF-7/Palbo-R,98.367%
same,Maximum Inhibition Rate,MDA-MB-468 (Rb-),34% and 34.044%
same,IC50,MDA-MB-468 (Rb-),> 5000 nM
same,IC50,MDA-MB-231,> 5000 nM
same,Maximum Inhibition Rate,MDA-MB-231,41.943%
same,IC50,HCC1187,> 5000 nM
same,Maximum Inhibition Rate,HCC1187,11.183%
same,Maximum Inhibition Rate,MCF-7,96.983%
same,IC50,MCF-7,52 nM
same,Maximum Inhibition Rate,T47D,48.850%
same,IC50,T47D,> 5000 nM
CC(=O)c1c(C)c2cnc(Nc3ccc4c(c3)OC[C@@H]3CN(C5CCN(C)CC5)CCN43)nc2n(C2CCCC2)c1=O [crystalline form B of the hydrochloride salt of compound A],Purity (Peak area%) 0 day,[2],99.31 Peak area%
same,XRPD pattern / crystalline form after the DVS test,[3]; before vs after DVS test,did not change
same,XRPD-7days,[4]; 40°C /75%RH,Unchanged
same,Purity (Peak area%) 7 days,"[4]; 40°C /75%RH, HPLC",99.33 Peak area%
same,chemical stability,"[4]; 60 °C, 92.5% RH and 40 °C/75% RH for 7 days, HPLC",chemically stable
same,XRPD-7days,[4]; 60°C,Unchanged
same,Purity (Peak area%) 7 days,"[4]; 60°C, HPLC",99.38 Peak area%
same,XRPD-7days,[4]; 92.5%RH,Unchanged
same,Purity (Peak area%) 7 days,"[4]; 92.5%RH, HPLC",99.36 Peak area%
same,crystalline form (XRPD) after 7 days,"[4]; under the three conditions 60 °C, 92.5% RH and 40 °C/75% RH",remained unchanged
CC(=O)c1c(C)c2cnc(Nc3ccc4c(c3)OC[C@@H]3CN(C5CCN(C)CC5)CCN43)nc2n(C2CCCC2)c1=O [crystalline form C of the benzenesulfonate of compound A],Purity (Peak area%) 0 day,[2],98.79 Peak area%
same,moisture absorption,"[3]; DVS, at 80% RH",1.2%
same,XRPD-7days,[4]; 40°C /75%RH,remained unchanged
same,Purity (Peak area%) 7 days,"[4]; 40°C /75%RH, HPLC",98.79 Peak area%
same,XRPD-7days,[4]; 60°C,remained unchanged
same,Purity (Peak area%) 7 days,"[4]; 60°C, HPLC",98.89 Peak area%
same,XRPD-7days,[4]; 92.5%RH,changed into a new crystalline form
same,Purity (Peak area%) 7 days,"[4]; 92.5%RH, HPLC",98.84 Peak area%
